Data reported in patent US20260297080A1, “BICYCLIC COMPOUNDS AS CDK INHIBITORS” (BeOne Medicines I GmbH, priority 2022, published 2026).
pIC50: −log10 of the molar value.

Experiments:
CDK1/Cyclin B1 = CDK1/Cyclin B1 (Homo sapiens, UniProt P06493); assay: CDK1/Cyclin B1 Biochemical Assay (TR-FRET), 0.015 mM ATP; conditions: 0.15 μM Rb (Ser780)-biotin substrate, pH7.0, 60 min preincubation, 120 min reaction, room temperature
In short: (§1)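 TR-FRET assay with 0.15 μM Rb (Ser780)-biotin substrate and 0-10 μM compound in 50 mM HEPES pH7.0, 50 mM MgCl2, 1 mM DTT. ATP was 0.060 mM for CDK2/Cyclin E1 and 0.015 mM for CDK1/Cyclin B1. Kinase was preincubated with compound 60 min, reacted 120 min at room temperature, and IC50 was fitted (four-parameter) from the 665/620 nm ratio.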

CDK2/Cyclin E1 = CDK2/Cyclin E1 (Homo sapiens, UniProt P24941); assay: CDK2/Cyclin E1 Biochemical Assay (TR-FRET), 0.060 mM ATP; conditions: 0.15 μM Rb (Ser780)-biotin substrate, pH7.0, 60 min preincubation, 120 min reaction, room temperature
In short: as §1

Chain of CDK1/Cyclin B1 (P06493 whole entry): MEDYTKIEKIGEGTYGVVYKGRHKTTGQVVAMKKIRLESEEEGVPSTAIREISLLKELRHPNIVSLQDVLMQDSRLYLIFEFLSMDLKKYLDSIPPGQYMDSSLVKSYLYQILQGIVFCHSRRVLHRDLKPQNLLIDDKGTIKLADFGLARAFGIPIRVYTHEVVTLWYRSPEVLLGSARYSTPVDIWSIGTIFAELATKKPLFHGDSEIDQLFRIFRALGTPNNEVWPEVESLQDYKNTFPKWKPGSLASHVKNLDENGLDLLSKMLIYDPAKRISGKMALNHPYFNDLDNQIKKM
Chain of CDK1/Cyclin B1 (P14635 whole entry partner): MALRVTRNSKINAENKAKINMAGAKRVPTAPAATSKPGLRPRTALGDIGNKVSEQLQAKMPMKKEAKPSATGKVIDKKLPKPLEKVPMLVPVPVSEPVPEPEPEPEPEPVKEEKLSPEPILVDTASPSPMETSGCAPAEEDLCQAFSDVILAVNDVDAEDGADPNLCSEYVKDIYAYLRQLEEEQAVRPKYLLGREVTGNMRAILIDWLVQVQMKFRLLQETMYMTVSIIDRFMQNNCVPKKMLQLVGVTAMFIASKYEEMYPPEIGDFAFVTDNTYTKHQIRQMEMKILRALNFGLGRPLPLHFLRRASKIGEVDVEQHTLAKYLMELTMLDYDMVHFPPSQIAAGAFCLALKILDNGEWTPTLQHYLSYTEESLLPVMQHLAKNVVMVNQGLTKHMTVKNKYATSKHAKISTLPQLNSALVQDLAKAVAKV

pIC50 (CDK1/Cyclin B1)	pIC50 (CDK2/Cyclin E1)	SMILES
6.29	8.27	CC(C)NC(=O)O[C@H]1CC[C@@H](c2cc(Nc3ccc4c(c3F)CN(C3CC3)S4(=O)=O)n[nH]2)C1 (single isomer, unassigned) [Example 116a, cis-3-(3-((2-cyclopropyl-4-fluoro-1,1-dioxido-2,3-dihydrobenzo[d]isothiazol-5-yl)amino)-1H-pyrazol-5-yl)cyclopentyl isopropylcarbamate]
6.72	8.27	CC(C)NC(=O)O[C@H]1CC[C@@H](c2cc(Nc3ccc4c(c3F)CN(C3CC3)S4(=O)=O)n[nH]2)C1 (single isomer, unassigned) [Example 116b, cis-3-(3-((2-cyclopropyl-4-fluoro-1,1-dioxido-2,3-dihydrobenzo[d]isothiazol-5-yl)amino)-1H-pyrazol-5-yl)cyclopentyl isopropylcarbamate]
6.49	8.60	CC[C@H](C)NC(=O)O[C@H]1CC[C@@H](c2cc(Nc3ccc4c(c3F)CN(C3CC3)S4(=O)=O)n[nH]2)C1 (single isomer, unassigned) [Example 117a]
7.04	8.74	CC[C@H](C)NC(=O)O[C@H]1CC[C@@H](c2cc(Nc3ccc4c(c3F)CN(C3CC3)S4(=O)=O)n[nH]2)C1 (single isomer, unassigned) [Example 117b]
6.40	7.85	CCCNC(=O)O[C@H]1CC[C@@H](c2cc(Nc3ccc4c(c3F)CN(C3CC3)S4(=O)=O)n[nH]2)C1 (single isomer, unassigned) [Example 118a, cis-3-(3-((2-cyclopropyl-4-fluoro-1,1-dioxido-2,3-dihydrobenzo[d]isothiazol-5-yl)amino)-1H-pyrazol-5-yl)cyclopentyl propylcarbamate]
6.77	8.10	CCCNC(=O)O[C@H]1CC[C@@H](c2cc(Nc3ccc4c(c3F)CN(C3CC3)S4(=O)=O)n[nH]2)C1 (single isomer, unassigned) [Example 118b, cis-3-(3-((2-cyclopropyl-4-fluoro-1,1-dioxido-2,3-dihydrobenzo[d]isothiazol-5-yl)amino)-1H-pyrazol-5-yl)cyclopentyl propylcarbamate]
6.67	8.60	CC1(NC(=O)O[C@H]2CC[C@@H](c3cc(Nc4ccc5c(c4F)CN(C4CC4)S5(=O)=O)n[nH]3)C2)CC1 (single isomer, unassigned) [Example 119a, cis-3-(3-((2-cyclopropyl-4-fluoro-1,1-dioxido-2,3-dihydrobenzo[d]isothiazol-5-yl)amino)-1H-pyrazol-5-yl)cyclopentyl(1-methylcyclopropyl)carbamate]
6.94	8.72	CC1(NC(=O)O[C@H]2CC[C@@H](c3cc(Nc4ccc5c(c4F)CN(C4CC4)S5(=O)=O)n[nH]3)C2)CC1 (single isomer, unassigned) [Example 119b, cis-3-(3-((2-cyclopropyl-4-fluoro-1,1-dioxido-2,3-dihydrobenzo[d]isothiazol-5-yl)amino)-1H-pyrazol-5-yl)cyclopentyl(1-methylcyclopropyl)carbamate]
6.37	8.24	CC(C)NC(=O)O[C@H]1CC[C@@H](c2cc(Nc3ccc4c(c3F)CN(C)S4(=O)=O)n[nH]2)C1 (single isomer, unassigned) [Example 121a, cis-3-(3-((4-fluoro-2-methyl-1,1-dioxido-2,3-dihydrobenzo[d]isothiazol-5-yl)amino)-1H-pyrazol-5-yl)cyclopentyl isopropylcarbamate]
6.89	8.48	CC(C)NC(=O)O[C@H]1CC[C@@H](c2cc(Nc3ccc4c(c3F)CN(C)S4(=O)=O)n[nH]2)C1 (single isomer, unassigned) [Example 121b, cis-3-(3-((4-fluoro-2-methyl-1,1-dioxido-2,3-dihydrobenzo[d]isothiazol-5-yl)amino)-1H-pyrazol-5-yl)cyclopentyl isopropylcarbamate]
6.34	7.92	CCCNC(=O)O[C@H]1CC[C@@H](c2cc(Nc3ccc4c(c3F)CN(C)S4(=O)=O)n[nH]2)C1 (single isomer, unassigned) [Example 122a, cis-3-(3-((4-fluoro-2-methyl-1,1-dioxido-2,3-dihydrobenzo[d]isothiazol-5-yl)amino)-1H-pyrazol-5-yl)cyclopentyl propylcarbamate]
6.91	8.06	CCCNC(=O)O[C@H]1CC[C@@H](c2cc(Nc3ccc4c(c3F)CN(C)S4(=O)=O)n[nH]2)C1 (single isomer, unassigned) [Example 122b, cis-3-(3-((4-fluoro-2-methyl-1,1-dioxido-2,3-dihydrobenzo[d]isothiazol-5-yl)amino)-1H-pyrazol-5-yl)cyclopentyl propylcarbamate]
6.21	8.28	CC[C@H](C)NC(=O)O[C@H]1CC[C@@H](c2cc(Nc3ccc4c(c3F)CN(C)S4(=O)=O)n[nH]2)C1 (single isomer, unassigned) [Example 123a]
6.66	8.59	CC[C@H](C)NC(=O)O[C@H]1CC[C@@H](c2cc(Nc3ccc4c(c3F)CN(C)S4(=O)=O)n[nH]2)C1 (single isomer, unassigned) [Example 123b]
5.91	7.92	CC(C)NC(=O)O[C@H]1CC[C@@H](c2cc(Nc3ccc4c(c3F)CN(CCO)S4(=O)=O)n[nH]2)C1 (single isomer, unassigned) [Example 125a, cis-3-(3-((4-fluoro-2-(2-hydroxyethyl)-1,1-dioxido-2,3-dihydrobenzo[d]isothiazol-5-yl)amino)-1H-pyrazol-5-yl)cyclopentyl isopropylcarbamate]
6.47	8.31	CC(C)NC(=O)O[C@H]1CC[C@@H](c2cc(Nc3ccc4c(c3F)CN(CCO)S4(=O)=O)n[nH]2)C1 (single isomer, unassigned) [Example 125b, cis-3-(3-((4-fluoro-2-(2-hydroxyethyl)-1,1-dioxido-2,3-dihydrobenzo[d]isothiazol-5-yl)amino)-1H-pyrazol-5-yl)cyclopentyl isopropylcarbamate]
6.72	8.57	CC1(NC(=O)O[C@H]2CC[C@@H](c3cc(Nc4ccc5c(c4F)CN(CCO)S5(=O)=O)n[nH]3)C2)CC1 (single isomer, unassigned) [Example 128a, cis-3-(3-((4-fluoro-2-(2-hydroxyethyl)-1,1-dioxido-2,3-dihydrobenzo[d]isothiazol-5-yl)amino)-1H-pyrazol-5-yl)cyclopentyl(1-methylcyclopropyl)carbamate]
7.02	8.60	CC1(NC(=O)O[C@H]2CC[C@@H](c3cc(Nc4ccc5c(c4F)CN(CCO)S5(=O)=O)n[nH]3)C2)CC1 (single isomer, unassigned) [Example 128b, cis-3-(3-((4-fluoro-2-(2-hydroxyethyl)-1,1-dioxido-2,3-dihydrobenzo[d]isothiazol-5-yl)amino)-1H-pyrazol-5-yl)cyclopentyl(1-methylcyclopropyl)carbamate]
6.19	8.33	[2H]C([2H])([2H])N1Cc2c(ccc(Nc3cc([C@@H]4CC[C@H](OC(=O)NC(C)C)C4)[nH]n3)c2F)S1(=O)=O (single isomer, unassigned) [Example 129a, cis-3-(3-((4-fluoro-2-(methyl-d3)-1,1-dioxido-2,3-dihydrobenzo[d]isothiazol-5-yl)amino)-1H-pyrazol-5-yl)cyclopentyl isopropylcarbamate]
6.73	8.59	[2H]C([2H])([2H])N1Cc2c(ccc(Nc3cc([C@@H]4CC[C@H](OC(=O)NC(C)C)C4)[nH]n3)c2F)S1(=O)=O (single isomer, unassigned) [Example 129b, cis-3-(3-((4-fluoro-2-(methyl-d3)-1,1-dioxido-2,3-dihydrobenzo[d]isothiazol-5-yl)amino)-1H-pyrazol-5-yl)cyclopentyl isopropylcarbamate]
6.69	8.66	[2H]C([2H])([2H])N1Cc2c(ccc(Nc3cc([C@@H]4CC[C@H](OC(=O)NC5(C)CC5)C4)[nH]n3)c2F)S1(=O)=O (single isomer, unassigned) [Example 132a, cis-3-(3-((4-fluoro-2-(methyl-d3)-1,1-dioxido-2,3-dihydrobenzo[d]isothiazol-5-yl)amino)-1H-pyrazol-5-yl)cyclopentyl(1-methylcyclopropyl)carbamate]
7.19	8.72	[2H]C([2H])([2H])N1Cc2c(ccc(Nc3cc([C@@H]4CC[C@H](OC(=O)NC5(C)CC5)C4)[nH]n3)c2F)S1(=O)=O (single isomer, unassigned) [Example 132b, cis-3-(3-((4-fluoro-2-(methyl-d3)-1,1-dioxido-2,3-dihydrobenzo[d]isothiazol-5-yl)amino)-1H-pyrazol-5-yl)cyclopentyl(1-methylcyclopropyl)carbamate]
5.97	7.62	CC(C)NC(=O)O[C@H]1CC[C@@H](c2cc(Nc3ccc4c(c3F)CN(C3COC3)S4(=O)=O)n[nH]2)C1 (single isomer, unassigned) [Example 133a, cis-3-(3-((4-fluoro-2-(oxetan-3-yl)-1,1-dioxido-2,3-dihydrobenzo[d]isothiazol-5-yl)amino)-1H-pyrazol-5-yl)cyclopentyl isopropylcarbamate]
6.34	8.07	CC(C)NC(=O)O[C@H]1CC[C@@H](c2cc(Nc3ccc4c(c3F)CN(C3COC3)S4(=O)=O)n[nH]2)C1 (single isomer, unassigned) [Example 133b, cis-3-(3-((4-fluoro-2-(oxetan-3-yl)-1,1-dioxido-2,3-dihydrobenzo[d]isothiazol-5-yl)amino)-1H-pyrazol-5-yl)cyclopentyl isopropylcarbamate]
6.31	8.42	CC[C@H](C)NC(=O)O[C@H]1CC[C@@H](c2cc(Nc3ccc4c(c3F)CN(C3COC3)S4(=O)=O)n[nH]2)C1 (single isomer, unassigned) [Example 134a]
